Measurements reported in US12162888B2, “Carboxamides as ubiquitin-specific protease inhibitors” (Valo Early Discovery, Inc., priority 2018, dated 2024).

target: T1, USP28 (USP28-5(1-1077)-TEV-6*His; LifeSensors) (Homo sapiens, UniProt Q96RU2); assay: Ubiquitin-Rhodamine 110 Assay for USP28 Activity, Example A-1(b); type: biochemical
T1 construct: construct USP28 (USP28-5(1-1077)-TEV-6*His; LifeSensors); TEV cleavage site (C); 6xHis (C); purchased LifeSensors
T1 sequence (Q96RU2 1-1077): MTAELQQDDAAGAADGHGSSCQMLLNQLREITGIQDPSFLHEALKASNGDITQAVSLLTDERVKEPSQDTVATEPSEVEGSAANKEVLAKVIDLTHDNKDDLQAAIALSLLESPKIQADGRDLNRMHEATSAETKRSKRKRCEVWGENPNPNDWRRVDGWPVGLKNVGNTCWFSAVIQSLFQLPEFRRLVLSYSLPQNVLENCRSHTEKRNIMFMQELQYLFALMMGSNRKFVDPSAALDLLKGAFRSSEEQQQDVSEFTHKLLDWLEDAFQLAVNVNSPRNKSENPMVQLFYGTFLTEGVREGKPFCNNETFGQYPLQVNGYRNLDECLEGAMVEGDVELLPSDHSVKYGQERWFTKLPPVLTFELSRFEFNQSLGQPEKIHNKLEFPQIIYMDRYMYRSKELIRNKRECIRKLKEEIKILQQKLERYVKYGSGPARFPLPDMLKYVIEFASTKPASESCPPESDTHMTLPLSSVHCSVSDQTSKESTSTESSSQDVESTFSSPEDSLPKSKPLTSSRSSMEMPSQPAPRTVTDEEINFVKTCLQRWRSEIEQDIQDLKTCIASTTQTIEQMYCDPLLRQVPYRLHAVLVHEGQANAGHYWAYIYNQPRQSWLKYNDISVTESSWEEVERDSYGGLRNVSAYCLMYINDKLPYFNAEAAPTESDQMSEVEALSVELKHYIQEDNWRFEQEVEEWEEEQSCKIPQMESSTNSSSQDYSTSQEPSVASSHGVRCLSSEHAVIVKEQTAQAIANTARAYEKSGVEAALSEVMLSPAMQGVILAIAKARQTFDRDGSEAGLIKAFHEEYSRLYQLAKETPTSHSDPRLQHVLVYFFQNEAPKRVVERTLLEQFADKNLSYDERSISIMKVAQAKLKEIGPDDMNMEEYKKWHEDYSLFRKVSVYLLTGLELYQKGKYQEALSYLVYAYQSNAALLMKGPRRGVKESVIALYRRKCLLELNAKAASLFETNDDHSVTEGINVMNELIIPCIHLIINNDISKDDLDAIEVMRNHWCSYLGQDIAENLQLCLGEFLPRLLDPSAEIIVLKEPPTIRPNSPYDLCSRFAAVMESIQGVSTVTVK
Method: Example A-1(b): Biochemical Assay: Ubiquitin-Rhodamine 110 Assay for USP28 Activity
Each assay was performed in a final volume of 20 μL in assay buffer containing 20 mM Tris-HCl (pH 8.0, (1M Tris-HCl, pH 8.0 solution; Corning 46-031-CM)), 2 mM CaCl2 (1M Calcium Chloride solution; Sigma #21114) 2 mM BME (2-Mercaptoethanol; Sigma 63689-25ML-F), 0.01% Prionex (0.22 μM filtered, Sigma #G-0411), and 0.01% Triton X-100. Stock compound solutions were stored at −20° C. as 10 mM in DMSO. Up to 1 month prior to the assay, 2 mM test compounds were pre-dispensed into assay plates (Black, low volume; Corning #3820) and frozen at −20° C. Prestamped assay plates were allowed to come to room temperature on the day of the assay. For the screen, 100 nL of 2 mM was pre-dispensed for a final screening concentration of 10 μM (DMSO(fc)=0.5%). […] Plates were incubated stacked for 90 minutes at room temperature before fluorescence was read on the Envision (Excitation at 485 nm and Emission at 535 nm; Perkin Elmer) or on the PheraSTAR (Excitation at 485 nm and Emission at 535 nm; BMG Labtech).
For follow-up studies, each assay was performed in a final volume of 15 μL in assay buffer containing 20 mM Tris-HCl (pH 8.0, (1M Tris-HCl, pH 8.0 solution; Corning 46-031-CM)), 3 mM BME (2-Mercaptoethanol; Sigma 63689-25ML-F), 0.03% BGG (0.22 μM filtered, Sigma, G7516-25G), and 0.01% Triton X-100 (Sigma, T9284-10L). Nanoliter quantities of either an 8-point or 10-point, 3-fold serial dilution in DMSO was pre-dispensed into assay plates (Perkin Elmer, ProxiPlate-384 F Plus, #) for a final test concentration of either 25 μM to 11 nM or 25 μM to 1.3 nM, respectively. Enzyme USP28, construct USP28 (USP28-5(1-1077)-TEV-6*His; LifeSensors) concentration and incubation times were optimized for the maximal signal-to-background while maintaining initial velocity conditions at a fixed substrate concentration. The final concentration of the enzyme in the assay was […]. Final substrate (Ub-Rh110; Ubiquitin-Rhodamine 110, R&D Systems #U-555) concentration was 25 nM with [Ub-Rh110]<<Km. 5 μL of 2× enzyme was added to assay plates (pre-stamped with compound) preincubated with USP28 for 30 minutes and then 5 μL of 2× Ub-Rh110 was added to assay plates. Plates were incubated stacked for 20 minutes at room temperature before 5 μL of stop solution was added (final concentration of 10 mM citric acid (Sigma, 251275-500G)). Fluorescence was read on the Envision (Excitation at 485 nm and Emission at 535 nm; Perkin Elmer) or on the PheraSTAR (Excitation at 485 nm and Emission at 535 nm; BMG Labtech).
For assay formats Example A-1(a), A-1(b), and A-2, data were reported as percent inhibition compared with control wells based on the following equation: % inh=1−((FLU−AveLow)/(AveHigh−AveLow)) where FLU=measured Fluorescence, AveLow=average Fluorescence of no enzyme control (n=16), and AveHighh=average Fluorescence of DMSO control (n=16). IC50 values were determined by curve fitting of the standard 4 parameter logistic fitting algorithm included in the Activity Base software package: IDBS XE Designer Model 205. Data is fitted using the Levenburg Marquardt algorithm.

SMILES | USP28 A-1(b) IC50 range
Cc1ccc2c(N)c(C(=O)N[C@H]3COc4cc(N5CCNCC5)ccc4[C@H]3C)sc2n1 (single isomer, unassigned) [Example 11-15] | + (“+”L>2 μM)
Cc1ccc2c(N)c(C(=O)N[C@H]3COc4cc(N5CCNCC5)ccc4[C@@H]3C)sc2n1 (single isomer, unassigned) [Example 11-16] | + (“+”L>2 μM)
Cc1ccc2c(N)c(C(=O)N[C@H]3COc4cc(N5CCNCC5)ccc4[C@@H]3C)sc2n1 (single isomer, unassigned) [Example 11-17] | + (“+”L>2 μM)
Cc1ccc2c(N)c(C(=O)N[C@@H]3COc4cc(N5CCNCC5)ccc4[C@@H]3C)sc2n1 (single isomer, unassigned) [Example 11-18] | + (“+”L>2 μM)
Cc1cnc2c(N)c(C(=O)N[C@H]3CCc4cc(N5CCNCC5)ccc4C3)sc2n1 (single isomer, unassigned) [Example 11-19] | ++ (“++”: 0.2-2 μM)
Cc1cnc2c(N)c(C(=O)N[C@@H]3CCc4cc(N5CCNCC5)ccc4C3)sc2n1 (single isomer, unassigned) [Example 11-20] | + (“+”L>2 μM)
Cc1ccc2c(N)c(C(=O)N[C@H]3CCc4cc(N5CCNCC5)ccc4C3)sc2n1 (single isomer, unassigned) [Example 11-21] | ++ (“++”: 0.2-2 μM)
Cc1ccc2c(N)c(C(=O)N[C@@H]3CCc4cc(N5CCNCC5)ccc4C3)sc2n1 (single isomer, unassigned) [Example 11-22] | ++ (“++”: 0.2-2 μM)
CN[C@H]1CCN(c2ccc3c(c2)CC[C@H](NC(=O)c2sc4nc(C)cnc4c2N)C3)C1 (single isomer, unassigned) [Example 11-25] | ++ (“++”: 0.2-2 μM)
CN[C@H]1CCN(c2ccc3c(c2)CC[C@@H](NC(=O)c2sc4nc(C)cnc4c2N)C3)C1 (single isomer, unassigned) [Example 11-26] | + (“+”L>2 μM)
CN[C@@H]1CCN(c2ccc3c(c2)CC[C@H](NC(=O)c2sc4nc(C)cnc4c2N)C3)C1 (single isomer, unassigned) [Example 11-27] | ++ (“++”: 0.2-2 μM)
CN[C@@H]1CCN(c2ccc3c(c2)CC[C@@H](NC(=O)c2sc4nc(C)cnc4c2N)C3)C1 (single isomer, unassigned) [Example 11-28] | + (“+”L>2 μM)
Cc1cnc2c(N)c(C(=O)N[C@H]3CCc4cc(N5C[C@@H]6C[C@H]5CN6)ccc4C3)sc2n1 (single isomer, unassigned) [Example 11-29] | ++ (“++”: 0.2-2 μM)
Cc1cnc2c(N)c(C(=O)N[C@@H]3CCc4cc(N5C[C@@H]6C[C@H]5CN6)ccc4C3)sc2n1 (single isomer, unassigned) [Example 11-30] | ++ (“++”: 0.2-2 μM)
Cc1cnc2c(N)c(C(=O)N[C@H]3CCc4cc(N5C[C@H]6C[C@@H]5CN6)ccc4C3)sc2n1 (single isomer, unassigned) [Example 11-31] | ++ (“++”: 0.2-2 μM)
Cc1cnc2c(N)c(C(=O)N[C@@H]3CCc4cc(N5C[C@H]6C[C@@H]5CN6)ccc4C3)sc2n1 (single isomer, unassigned) [Example 11-32] | ++ (“++”: 0.2-2 μM)
Cc1nc2sc(C(=O)N[C@H]3CCc4cc(N5CCNCC5)ccc4C3)c(N)c2s1 (single isomer, unassigned) [Example 11-33] | + (“+”L>2 μM)
Cc1nc2sc(C(=O)N[C@@H]3CCc4cc(N5CCNCC5)ccc4C3)c(N)c2s1 (single isomer, unassigned) [Example 11-34] | ++ (“++”: 0.2-2 μM)
Cc1cnc2c(N)c(C(=O)N[C@@H]3CCc4cc(N5CCNCC5)cc(F)c4C3)sc2n1 (single isomer, unassigned) [Example 11-37] | + (“+”L>2 μM)
Cc1cnc2c(N)c(C(=O)N[C@H]3CCc4cc(N5CCNCC5)cc(F)c4C3)sc2n1 (single isomer, unassigned) [Example 11-38] | +++ (“+++”: 0.05-0.2 μM)
Cc1ccc2c(N)c(C(=O)N[C@H]3CCc4cc(N5CC6CNCC(C5)O6)cc(F)c4C3)sc2n1 (single isomer, unassigned) [Example 11-39] | ++ (“++”: 0.2-2 μM)
Cc1ccc2c(N)c(C(=O)N[C@@H]3CCc4cc(N5CC6CNCC(C5)O6)cc(F)c4C3)sc2n1 (single isomer, unassigned) [Example 11-40] | ++++ (“++++”: 0.001-0.05 μM)
Cc1ccc2c(N)c(C(=O)N[C@@H]3CCc4c(C#N)c(N5CCNCC5)cc(F)c4C3)sc2n1 (single isomer, unassigned) [Example 14-9] | + (“+”L>2 μM)
Cc1ccc2c(N)c(C(=O)N[C@H]3CCc4c(C#N)c(N5CCNCC5)cc(F)c4C3)sc2n1 (single isomer, unassigned) [Example 14-10] | +++ (“+++”: 0.05-0.2 μM)
Cc1cnc2c(N)c(C(=O)N[C@@H]3CCc4c(ccc(N5CCNCC5)c4F)C3)sc2n1 (single isomer, unassigned) [Example 21-9] | ++ (“++”: 0.2-2 μM)
Cc1cnc2c(N)c(C(=O)N[C@H]3CCc4c(ccc(N5CCNCC5)c4F)C3)sc2n1 (single isomer, unassigned) [Example 21-10] | + (“+”L>2 μM)
Cc1cnc2c(N)c(C(=O)N[C@@H]3CCc4cc(N5CCNCC5)c(F)cc4C3)sc2n1 (single isomer, unassigned) [Example 21-11] | ++ (“++”: 0.2-2 μM)
Cc1cnc2c(N)c(C(=O)N[C@H]3CCc4cc(N5CCNCC5)c(F)cc4C3)sc2n1 (single isomer, unassigned) [Example 21-12] | ++++ (“++++”: 0.001-0.05 μM)
